Measured values taken from US20230112306A1, “METHODS OF CONTROLLING OR PREVENTING INFESTATION OF SOYBEAN PLANTS BY THE PHYTOPATHOGENIC MICROORGANISM CORYNESPORA CASSIICOLA” (SYNGENTA CROP PROTECTION AG, priority 2020, published 2023).

Tested on: Corynespora cassiicola
Test: Corynespora cassiicola (target leaf spot) growth inhibition in nutrient broth, microtiter plate
Format: cell-based
Conditions: PDB broth, 24° C., photometric at 620 nm after 3-4 days, vs untreated check, read-out: % control of Corynespora cassiicola (inhibition of growth)
Description: Example 1: Corynespora Cassiicola (Target Leaf Spot) Conidia of the fungus from cryogenic storage were directly mixed into nutrient broth (PDB potato dextrose broth). A DMSO solution of the test compounds was placed into a microtiter plate (96-well format) and the nutrient broth containing the fungal spores was added to it. The test plates were incubated at 24° C. and the inhibition of growth (% control of Corynespora cassiicola) was determined photometrically after 3-4 days at 620 nm. The activity of a compound is derived by comparing the inhibition of growth in the treated test solution to the growth in the untreated check. The concentration of the compounds was 6.7, 2.2, 0.74, 0.25, and 0.082 ppm.

Row | SMILES | inhibition at 0.25 ppm [%] | inhibition at 0.74 ppm [%] | inhibition at 2.2 ppm [%] | inhibition at 6.7 ppm [%]
1 | CC1(C)N=C(c2cnc3c(F)cccc3c2)c2ccsc2C1(F)F [Ic, 7,7-Difluoro-4-(8-fluoro-3-quinolyl)-6,6-dimethyl-6,7-dihydro-1-thia-5-azaindene] | ≥ 20 | ≥ 50 | ≥ 70 | ≥ 70
2 | Cc1cc(C2=NC(C)(C)C(F)(F)c3ccccc32)cnc1C(F)F [la, 5-(4,4-Difluoro-3,3-dimethyl-3,4-dihydro-1-isoquinolyl)-2-(difluoromethyl)-3-methylpyridine] | ≥ 20 | ≥ 50 | ≥ 70 | ≥ 70
